In one assay the target is T1, human PAH with the R408W mutation (Homo sapiens, UniProt P00439, R408W).
T1 construct: expressed in transfected cells
T1 sequence (P00439 1-452 R408W): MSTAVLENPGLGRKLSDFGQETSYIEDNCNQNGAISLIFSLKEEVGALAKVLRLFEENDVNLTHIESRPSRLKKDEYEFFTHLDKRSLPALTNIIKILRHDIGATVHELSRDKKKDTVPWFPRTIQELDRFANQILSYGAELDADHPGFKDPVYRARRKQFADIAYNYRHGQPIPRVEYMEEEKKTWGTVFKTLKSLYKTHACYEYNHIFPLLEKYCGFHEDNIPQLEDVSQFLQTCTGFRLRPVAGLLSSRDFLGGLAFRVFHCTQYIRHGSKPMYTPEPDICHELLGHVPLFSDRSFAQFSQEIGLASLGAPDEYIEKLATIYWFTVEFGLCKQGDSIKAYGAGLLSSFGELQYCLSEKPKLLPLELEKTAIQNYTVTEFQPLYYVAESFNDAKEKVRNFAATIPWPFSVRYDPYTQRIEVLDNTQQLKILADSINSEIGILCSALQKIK
Nature of the assay: Cell Based Phenylalanine Flux Assay.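 Also: after compound treatment, cells received sepiapterin plus isotope-labelled Phenylalanine for 4 hours, then labelled Tyrosine in the medium was quantified, 10-point 2-fold dilution series run in duplicate.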 As to conditions: A375 cells expressing R408W PAH; 24 hrs with compound, then 20 µM sepiapterin and 800 µM 13C9,15N-Phenylalanine for 4 hours; 13C-Tyrosine by LC-MS; average where tested multiple times; read-out: AC50.
As a reminder, the AC50 is the concentration at which the activity in the assay is half-maximal. Take `FC(F)c1cccn2nc(C3c4nc[nH]c4CCN3c3nnc(-c4cccnn4)o3)cc12` (stereo not shown): the AC50 fell in the range of 1000 to 5000 nM.
Consider `c1cnc(-c2nnc(N3CCc4[nH]cnc4C3c3cc4ccccn4n3)o2)nc1` (stereo not shown), for which the AC50 is 1000 to 5000 nM.
Still for that read-out and setting: in the case of `O=C(c1nnc(-c2ccccn2)o1)N1CCc2[nH]cnc2C1c1cc2cc(C(F)(F)F)ccn2n1` (stereo not shown) it was 1000 to 5000 nM.

Still in this assay, the particulars now being: A375 cells expressing human PAH R408W; 24 hrs compound incubation; 13C-Tyrosine by LC-MS; average where tested multiple times; read-out: AC50.
As for `CC(C)c1cccn2nc([C@@H]3c4nc[nH]c4CCN3C(=O)c3nnc(-c4cnn(C(F)(F)F)c4)o3)cc12` [Example 1946, (S)-(4-(4-isopropylpyrazolo[1,5-a]pyridin-2-yl)-1,4,6,7-tetrahydro-5H-imidazo[4,5-c]pyridin-5-yl)(5-(1-(trifluoromethyl)-1H-pyrazol-4-yl)-1,3,4-oxadiazol-2-yl)methanone], the AC50 is under 500 nM.
The same measure, in the same setting: in the case of `Cn1ccc(-c2nnc(C(=O)N3CCc4[nH]cnc4[C@H]3c3cc4ccccn4n3)s2)n1` [Example 2016, (S)-(5-(1-methyl-1H-pyrazol-3-yl)-1,3,4-thiadiazol-2-yl)(4-(pyrazolo[1,5-a]pyridin-2-yl)-1,4,6,7-tetrahydro-5H-imidazo[4,5-c]pyridin-5-yl)methanone] it was under 500 nM; in that of `CCc1cccn2nc([C@@H]3c4nc[nH]c4CCN3C(=O)c3nnc(C4CC4)o3)cc12` [Example 1875, (S)-(5-cyclopropyl-1,3,4-oxadiazol-2-yl)(4-(4-ethylpyrazolo[1,5-a]pyridin-2-yl)-1,4,6,7-tetrahydro-5H-imidazo[4,5-c]pyridin-5-yl)methanone], under 500 nM; in that of `Cc1cccn2nc([C@H]3c4nc[nH]c4CCN3c3nnc(-c4cccc(F)n4)o3)cc12` [Example 2360, (R)-2-(6-fluoropyridin-2-yl)-5-(4-(4-methylpyrazolo[1,5-a]pyridin-2-yl)-1,4,6,7-tetrahydro-5H-imidazo[4,5-c]pyridin-5-yl)-1,3,4-oxadiazole], over 5000 nM.

The assay is the same for the next values; noted with them: A375 cells expressing human R408W PAH; 24 hrs compound incubation; 13C-Tyrosine by LC-MS; average where tested multiple times; read-out: AC50.
On to `O=C(c1nnc(-c2cccnc2)o1)N1CCc2[nH]cnc2[C@@H]1c1cc2cccc(C(F)F)n2n1` [Example 1469, (R)-(4-(7-(difluoromethyl)pyrazolo[1,5-a]pyridin-2-yl)-6,7-dihydro-1H-imidazo[4,5-c]pyridin-5(4H)-yl)(5-(pyridin-3-yl)-1,3,4-oxadiazol-2-yl)methanone], for which the concentration at half-maximal activity (AC50) is over 5000 nM.
For `Cc1cccn2nc([C@H]3c4nc[nH]c4CCN3c3ncccn3)cc12` [Example 1619, (R)-4-(4-methylpyrazolo[1,5-a]pyridin-2-yl)-5-(pyrimidin-2-yl)-4,5,6,7-tetrahydro-1H-imidazo[4,5-c]pyridine], the AC50 lay in the range of 1000 to 5000 nM.
Take `Cc1cc(-c2nnc(C(=O)N3CCc4[nH]cnc4[C@@H]3c3cc4c(C(F)F)cccn4n3)o2)nn1C` [Example 1530, (R)-(4-(4-(difluoromethyl)pyrazolo[1,5-a]pyridin-2-yl)-6,7-dihydro-1H-imidazo(4,5-c]pyridin-5(4H)-yl)(5-(1,5-dimethyl-1H-pyrazol-3-yl)-1,3,4-oxadiazol-2-yl)methanone]: the AC50 is over 5000 nM.
Turning to `Cc1cccc2cc([C@H]3c4nc[nH]c4CCN3C(=O)c3nnc(C(C)C)o3)nn12` [Example 1491, (R)-(5-isopropyl-1,3,4-oxadiazol-2-yl)(4-(7-methylpyrazolo[1,5-a]pyridin-2-yl)-6,7-dihydro-1H-imidazo[4,5-c]pyridin-5(4H)-yl)methanone], the half-maximal activity concentration (AC50) lay within 1000 to 5000 nM.
For `O=C(c1nnc(-c2cnccn2)o1)N1CCc2[nH]cnc2[C@@H]1c1cc2c(F)cccn2n1` [Example 963, (R)-(4-(4-fluoropyrazolo[1,5-a]pyridin-2-yl)-6,7-dihydro-1H-imidazo[4,5-c]pyridin-5(4H)-yl)(5-(pyrazin-2-yl)-1,3,4-oxadiazol-2-yl)methanone], the AC50 is over 5000 nM.
`Cc1nc([C@H](C)O)oc1C(=O)N1CCc2[nH]cnc2[C@H]1c1cc2cccc(Cl)n2n1` [Example 1212, ((S)-4-(7-chloropyrazolo[1,5-a]pyridin-2-yl)-6,7-dihydro-1H-imidazo[4,5-c]pyridin-5(4H)-yl)(2-((S)-1-hydroxyethyl)-4-methyloxazol-5-yl)methanone]: the AC50 lay within 500 to 1000 nM.
As for `O=C(c1nnc(-c2ccncn2)o1)N1CCc2[nH]cnc2[C@@H]1c1cc2c(F)cccn2n1` [Example 1259, (R)-(4-(4-fluoropyrazolo[1,5-a]pyridin-2-yl)-6,7-dihydro-1H-imidazo[4,5-c]pyridin-5(4H)-yl)(5-(pyrimidin-4-yl)-1,3,4-oxadiazol-2-yl)methanone], the AC50 lay within 1000 to 5000 nM.
Turning to `Cc1cccn2nc([C@@H]3c4nc[nH]c4CCN3C(=O)c3nnc(-c4cnn(C)c4C)o3)cc12` [Example 988, (S)-(5-(1,5-dimethyl-1H-pyrazol-4-yl)-1,3,4-oxadiazol-2-yl)(4-(4-methylpyrazolo[1,5-a]pyridin-2-yl)-6,7-dihydro-1H-imidazo[4,5-c)pyridin-5(4H)-yl)methanone], the half-maximal activity concentration (AC50) is under 500 nM.
`Cc1ncccc1-c1nnc(C(=O)N2CCc3[nH]cnc3[C@H]2c2cc3c(C(F)F)cccn3n2)o1` [Example 1394, (S)-(4-(4-(difluoromethyl)pyrazolo[1,5-a]pyridin-2-yl)-6,7-dihydro-1H-imidazo[4,5-c]pyridin-5(4H)-yl)(5-(2-methylpyridin-3-yl)-1,3,4-oxadiazol-2-yl)methanone]: the AC50 was under 500 nM.
Regarding `Cc1cnn(C)c1-c1nnc(C(=O)N2CCc3[nH]cnc3[C@H]2c2cc3c(F)cccn3n2)o1` [Example 928, (S)-(5-(1,4-dimethyl-1H-pyrazol-5-yl)-1,3,4-oxadiazol-2-yl)(4-(4-fluoropyrazolo[1,5-a]pyridin-2-yl)-6,7-dihydro-1H-imidazo[4,5-c]pyridin-5(4H)-yl)methanone], the AC50 was under 500 nM.
On the same count and under the same terms, in the case of `Cn1nc(Cl)nc1C(=O)N1CCc2[nH]cnc2[C@H]1c1cc2ccccn2n1` [Example 694, (S)-(3-chloro-1-methyl-1H-1,2,4-triazol-5-yl)(4-(pyrazolo[1,5-a]pyridin-2-yl)-6,7-dihydro-1H-imidazo[4,5-c]pyridin-5(4H)-yl)methanone] it was under 500 nM; in that of `Cc1cccc2cc([C@@H]3c4nc[nH]c4CCN3C(=O)c3ocnc3C(F)(F)F)nn12` [Example 1146, (S)-(4-(7-methylpyrazolo[1,5-a]pyridin-2-yl)-6,7-dihydro-1H-imidazo[4,5-c]pyridin-5(4H)-yl)(4-(trifluoromethyl)oxazol-5-yl)methanone], under 500 nM.
For `Cc1cccc2cc([C@H]3c4nc[nH]c4CCN3C(=O)c3nnc(C(C)(C)C)o3)nn12` [Example 1021, (R)-(5-(tert-butyl)-1,3,4-oxadiazol-2-yl)(4-(7-methylpyrazolo[1,5-a]pyridin-2-yl)-6,7-dihydro-1H-imidazo[4,5-c]pyridin-5(4H)-yl)methanone], the AC50 was 1000 to 5000 nM.
As for `O=C(c1ccnn1C(F)F)N1CCc2[nH]cnc2[C@@H]1c1cc2ccccn2n1` [Example 657, (R)-(1-(difluoromethyl)-1H-pyrazol-5-yl)(4-(pyrazolo[1,5-a]pyridin-2-yl)-6,7-dihydro-1H-imidazo[4,5-c]pyridin-5(4H)-yl)methanone], the AC50 is over 5000 nM.
With `CC(C)c1nnc(C(=O)N2CCc3[nH]cnc3[C@H]2c2cc3c(C(F)(F)F)cccn3n2)o1` [Example 1486, (S)-(5-isopropyl-1,3,4-oxadiazol-2-yl)(4-(4-(trifluoromethyl)pyrazolo[1,5-a]pyridin-2-yl)-6,7-dihydro-1H-imidazo[4,5-c]pyridin-5(4H)-yl)methanone], the AC50 was under 500 nM.

The values are drawn from patent US20230365592A1 (Agios Pharmaceuticals, Inc., priority 2022, published 2023).
